# Residues, ends and D or L forms follow the SMILES beside them.
# Columns and labels:
# [1] = ref [29], [30]; cited from earlier work
# WT GLP-2R = target: T1, WT GLP-2R (Homo sapiens, UniProt O95838); assay: GLP-2R signaling assay, cAMP measurements; type: cell-based
# T1 sequence (O95838 1-553): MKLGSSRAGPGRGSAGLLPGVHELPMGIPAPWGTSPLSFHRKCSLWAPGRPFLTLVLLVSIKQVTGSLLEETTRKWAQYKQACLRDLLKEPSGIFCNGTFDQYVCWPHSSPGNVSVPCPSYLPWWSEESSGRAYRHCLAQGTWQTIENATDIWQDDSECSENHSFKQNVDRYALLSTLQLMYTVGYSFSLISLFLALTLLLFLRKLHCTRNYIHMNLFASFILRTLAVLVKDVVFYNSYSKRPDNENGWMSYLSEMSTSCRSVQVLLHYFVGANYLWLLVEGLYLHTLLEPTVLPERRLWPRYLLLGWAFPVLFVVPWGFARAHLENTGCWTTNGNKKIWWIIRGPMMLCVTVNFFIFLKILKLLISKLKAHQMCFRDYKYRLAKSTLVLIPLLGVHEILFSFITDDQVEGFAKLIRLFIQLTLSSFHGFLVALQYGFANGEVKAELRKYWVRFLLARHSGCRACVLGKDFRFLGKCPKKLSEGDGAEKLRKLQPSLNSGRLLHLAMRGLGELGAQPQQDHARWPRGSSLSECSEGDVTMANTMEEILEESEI
structure (smiles),measurement,setting,value
"CC[C@H](C)[C@H](NC(=O)[C@H](Cc1ccccc1)NC(=O)[C@H](CCC(=O)O)NC(=O)[C@H](CCCCN)NC(=O)[C@H](C)NC(=O)[C@H](C)NC(=O)[C@H](CCC(N)=O)NC(=O)CNC(=O)[C@H](CCC(=O)O)NC(=O)[C@H](CC(C)C)NC(=O)[C@H](Cc1ccc(O)cc1)NC(=O)[C@H](CO)NC(=O)[C@H](CO)NC(=O)[C@@H](NC(=O)[C@H](CC(=O)O)NC(=O)[C@H](CO)NC(=O)[C@@H](NC(=O)[C@H](Cc1ccccc1)NC(=O)[C@@H](NC(=O)CNC(=O)[C@H](CCC(=O)O)NC(=O)[C@H](C)NC(=O)[C@@H](N)Cc1c[nH]cn1)[C@@H](C)O)[C@@H](C)O)C(C)C)C(=O)N[C@@H](C)C(=O)N[C@@H](Cc1c[nH]c2ccccc12)C(=O)N[C@@H](CC(C)C)C(=O)N[C@H](C(=O)N[C@@H](CCCCN)C(=O)NCC(=O)N[C@@H](CCCN=C(N)N)C(=O)NCC(=O)O)C(C)C [GLP-1, glucagon-like peptide 1]","half-life, whole body metabolism in vivo",[1],1 to 2 min
"CC[C@H](C)[C@H](NC(=O)[C@H](Cc1ccccc1)NC(=O)[C@H](CC(=O)O)NC(=O)[C@H](CCCN=C(N)N)NC(=O)[C@H](C)NC(=O)[C@H](C)NC(=O)[C@H](CC(C)C)NC(=O)[C@H](CC(N)=O)NC(=O)[C@H](CC(=O)O)NC(=O)[C@H](CC(C)C)NC(=O)[C@@H](NC(=O)[C@@H](NC(=O)[C@H](CC(N)=O)NC(=O)[C@H](CCSC)NC(=O)[C@H](CCC(=O)O)NC(=O)[C@H](CC(=O)O)NC(=O)[C@H](CO)NC(=O)[C@H](Cc1ccccc1)NC(=O)[C@H](CO)NC(=O)CNC(=O)[C@H](CC(=O)O)NC(=O)[C@H](C)NC(=O)[C@@H](N)Cc1cnc[nH]1)[C@@H](C)O)[C@@H](C)CC)C(=O)N[C@@H](CC(N)=O)C(=O)N[C@@H](Cc1c[nH]c2ccccc12)C(=O)N[C@@H](CC(C)C)C(=O)N[C@H](C(=O)N[C@@H](CCC(N)=O)C(=O)N[C@H](C(=O)N[C@@H](CCCCN)C(=O)N[C@H](C(=O)N[C@H](C(=O)N[C@@H](CC(=O)O)C(=O)O)[C@@H](C)O)[C@@H](C)CC)[C@@H](C)O)[C@@H](C)CC [GLP-2, glucagon-like peptide 2]","half-life, whole body metabolism in vivo",[1],7 min
CC[C@H](C)[C@H](NC(=O)[C@H](Cc1ccccc1)NC(=O)[C@H](CC(=O)O)NC(=O)[C@H](CCCNC(=N)N)NC(=O)[C@H](C)NC(=O)[C@H](C)NC(=O)[C@H](CC(C)C)NC(=O)[C@H](CC(N)=O)NC(=O)[C@H](CC(=O)O)NC(=O)[C@H](CC(C)C)NC(=O)[C@@H](NC(=O)[C@@H](NC(=O)[C@H](CC(N)=O)NC(=O)[C@H](CCSC)NC(=O)[C@H](CCC(=O)O)NC(=O)[C@H](CC(=O)O)NC(=O)[C@H](CO)NC(=O)[C@H](Cc1ccccc1)NC(=O)[C@H](CO)NC(=O)CNC(=O)[C@H](CC(=O)O)NC(=O)[C@H](CO)NC(=O)[C@@H](N)Cc1c[nH]cn1)[C@@H](C)O)[C@@H](C)CC)C(=O)N[C@@H](CC(N)=O)C(=O)N[C@@H](Cc1c[nH]c2ccccc12)C(=O)N[C@@H](CC(C)C)C(=O)N[C@H](C(=O)N[C@@H](CCC(N)=O)C(=O)N[C@H](C(=O)N[C@@H](CCCCN)C(=O)N[C@H](C(=O)N[C@H](C(=O)N[C@@H](CC(=O)O)C(=O)O)[C@@H](C)O)[C@@H](C)CC)[C@@H](C)O)[C@@H](C)CC [GLP-2 Ser2] (H-HSDGSFSDEMNTILDNLAARDFINWLIQTKITD-OH),EC50,WT GLP-2R,0.265 nM
